Test results reported in US20240373849A1, “INSECT NEUROPEPTIDE ANALOGUES” (THE UNIVERSITY COURT OF THE UNIVERSITY OF GLASGOW, priority 2020, published 2024).
Values belong to the molecule of their own block, whether it stands above or below them. Square brackets hold non-standard residues; d marks the D form. NMeL = CN[C@@H](CC(C)C)C(=O)O; NMeV = CN[C@H](C(=O)O)C(C)C; NMeA = CN[C@@H](C)C(=O)O; Aib = CC(C)(N)C(=O)O

Columns and labels:
[1] = tested on: Drosophila suzukii larvae; test: Drosophila suzukii larval feeding (Example 8; peptide screening); format: in vivo; conditions: for Feeding D. suzukii, % lethality in population after adjustment for baseline: 10^−5 M, 48 hr exposure
Protocol: (§1) First to Fourth generations of peptides were produced with varying structures and tested for CAPA receptor agonist activity, and screened for lethality in vivo against D. suzukii and M. persicae as per methods in example 2 and example 8. The top performing peptides were selected and gave rise to the list of CAPA1 and CAPA2 peptides provided above in Table 1 which were then further tested in the following applied examples.
Peptides were tested at concentrations ranging from [10^−4 M] to [10^−7 M] in a final volume of 200 μl of 0.8% agarose containing 0.09% m-Cresol purple pH marker dye (Sigma) and 5% sucrose (Sigma).
Agarose was melted in dH2O, before addition of sucrose and dye. The agarose/dye solution was then allowed to cool to 60° C. 96 well plates (flat-bottomed 3596 TC-plates; Corning) containing 20 μl volumes of neuropeptide per well were prepared, and 180 μl agarose/dye solution dispensed into each well via a Distriman repetitive micro-pipettor (Gilson). Controls contained 20 μl dH2O as a ‘sham’ treatment with 180 μl of the 0.8% agarose/dye solution. Plates were agitated at 800 rpm, to ensure mixing, at 60° C. (Eppendorf Thermomixer C). Plates were then allowed to cool, and agarose/dye solution solidify, prior to use.
Each peptide was assayed with a minimum of 7 to maximum 9 late L2/early L3 Spotted wing Drosophila, Drosophila suzukii, (feeding) larvae per well, minimum n=8 wells per peptide concentration and a minimum n=12 control wells per plate. The selected larvae were first washed 2× in ice cold Drosophila Schneider's liquid medium (ThermoFisher) before insertion into wells to remove extraneous food. After complete insertion of all larvae the plates were covered with breathable sealing membrane for multi-well plates (Sigma).
Larvae were assayed for lethality after 48 hr exposure at 21° C. and findings recorded. During examination the assay plate was kept on ice, to reduce larval locomotor activity (wandering), and larvae in each well were examined using a binocular stereomicroscope (Zeiss).
The water control group was used to determine baseline lethality. Results for neuropeptide analogues were calculated as % lethality in the remaining population after adjustment for the baseline. Results are shown in Tables 7 and 8 below, and in FIG. 1.

D. suzukii larvae = test: Drosophila suzukii larval feeding (Example 9; dose response); format: in vivo; conditions: for % Lethality ± SEM: Table 6, 10^−5 M, 48 hr and/or 72 h exposure (FIG. 7: AH270/PEGAH270 120 h)
Protocol: Dose response experiments were carried out for AH382, AH383, AH188, data shown for AH382 (a), AH383 (b), AH188 (c, 48 hours). Data are mean % lethality ±SEM for concentrations between 10^−4 M and 10^−7 M (a) AH382, (b) AH383 72 hours treatment; and between 10^−5 M and 10^−9 M (AH188, 3c), 48 hours treatment. The LD50 for AH382, AH383 and AH188 is 10^−6 M.
Further larval feeding assays with D. suzukii larvae were conducted as explained above in example 7. A total of 88 peptides were tested against D. suzukii larvae in 96 well plates at 10^−5 M in a final volume of 200 μl of 0.8% agarose containing 0.09% m-Cresol purple pH marker dye (Sigma) and 5% sucrose (Sigma). Controls contained dH2O (18% lethality) or native Capa-2 peptide (38% lethality) as a ‘sham’ treatment. Each peptide was assayed with a minimum of 7 to maximum 9 late L2/early L3 larvae per well, minimum n=8 wells per peptide concentration (minimum 56 larvae) and a minimum n=12 control wells (minimum 84 larvae) per plate. Larvae were assayed for lethality after 48 hr and/or 72 h exposure at 21° C. using a binocular stereomicroscope and findings recorded. Candidate peptides were also tested between 10^-4 and 10^-7 M (dose response curve).
Candidate peptides for D. suzukii with 70%-90% lethality are indicated below, in Table 6.

M. persicae [2] = test: Feeding of aphids with peptides in artificial diet (Example 1); format: in vivo, Myzus persicae
Protocol: A standard artificial diet for M. persicae was produced as described in Van Emden (2009) and provided the basal diet to which peptides were added for screening purposes. Peptides were diluted individually in the artificial diet to a pre-determined concentration.
Feeding apparatus were constructed using a set-up developed by Sadeghi et al (2009). For this, a piece of Parafilm was stretched over a Plexiglas ring (h=4 cm, Ø=3 cm) and 100 μl of the artificial diet containing the desired neuropeptide analogue was pipette onto the Parafilm membrane. A second piece of Parafilm, stretched to 4 times the original thickness, was stretched over the original layer, sandwiching the artificial diet between two layers of Parafilm. A strip of Parafilm was wrapped around the circumference of the Plexiglas ring, sealing in the diet. A plastic ring (h=1.2 cm, Ø=3.4 cm) was subsequently placed over the Parafilm layer, creating a walled chamber in which to house test aphids in contact with the Parafilm layer containing the artificial diet. Finally, a small Petri dish (h=1 cm, Ø=3.6 cm), modified for ventilation with net cloth, was placed on top of each feeding apparatus to prevent aphid escape.
To obtain aphids for use in experiments, reproducing anholocyclic adults were placed on individual excised leaves of Chinese cabbage at densities of 5 adults per leaf and allowed to reproduce for 24 h. The stem of each excised leaf was held within a 0.5 mL Eppendorf tube containing water via a punctured hole in the Eppendorf lid, and placed individually within a microcage (L=4 cm, Ø=9.5 cm). Following 24h, adults were removed and resultant first instar nymphs (<1 day old and synchronised in age to within 24h) retained. Nymphs were allowed to develop on the Chinese cabbage for 5 days. On day 5, (3rd instar) nymphs were transferred onto the artificial diet containing a neuropeptide analogue at densities of 1 per feeding chamber and monitored daily until death. Aphids were transferred to fresh artificial diet (containing neuropeptide analogue or water control) every 5 days.
The water control group was used to determine baseline lethality. Results for neuropeptide analogues were calculated as % lethality in the remaining population after adjustment for the baseline.

M. persicae [3] = test: Feeding of aphids with peptides in artificial diet (Example 2; peptide screening, honeydew); format: in vivo, Myzus persicae
Excerpt: as §1
The aphid feeding protocol was devised according to Sadeghi et al (2009) as explained in example 1. Feeding discs were designed and manufactured as above. A standard sucrose-based artificial diet for M. persicae (30 aphids per chamber, 3 chambers per experiment unless otherwise stated) was produced as described in example 1 (Sadeghi et al, J. Insect Science, 2009) and provided the basal diet to which peptides were added for screening purposes. Peptides were diluted individually in the artificial diet to 10^−5 M. Lethality was scored after up to 120 hours (IRAC guidelines for aphid testing).
Membrane discs were also included to collect ‘honeydew’ secreted by feeding aphids and stained with ninhydrin to observe feeding patterns.
Comparison of purple stain in controls to treated aphids, show there is very little colour on many membranes where peptides were added.
Capa peptides cause mortality in M. persicae via feeding: At 120 hours, AH383 and AH387 peptides induce ˜60% mean (and median) lethality. Although mean lethality is lower with AH270/PEGAH270 (40%), 100% lethality is observed in one sample of 30 insects (AH270); and 90% in at least one sample of each of AH383, AH387 and PEGAH270 (FIG. 3). Note that PEGAH270 is a pegylated form of peptide AH270.

Myzus persicae aphids = test: Topical application by spraying, Potter Spray Tower (Example 3); format: in vivo; conditions: 48 hours post spray
Protocol: Aphids were exposed to test peptides in the absence of additional external stress conditions.
Brassica rapa (Chinese cabbage; Wong Bok) were infested with 30 adult Myzus persicae aphids per plant. Aphids were left at least 2 hours to settle and begin feeding from the host plant.
Potter Spray Tower (Burkard Manufacturing) was ‘primed’ by spraying 1000 μl of liquid coating the inside of the tower. Vehicle spray only (Croda ATPlus UEP 100 LQ-(CQ) 0.1% v/v) was used as a control.
Spray volumes for all solutions were 3000 μl. […] After spraying was completed the plant was allowed to rest on the spray platform for 30 seconds to allow settling of the sprayed chemical.
Post peptide application, each condition was placed into its own individual Bugdorm (Watkins and Doncaster, 44545), to prevent repulsed or displaced aphids moving from one condition to another. Numbers of alive and dead aphids on the plant were counted 48 hours post spray, and the presence of any fresh nymphs noted. Plants were watered prior to spraying but not afterwards to eliminate the possibility of drowning any aphids present or washing off the sprayed liquid.
The vehicle control group was used to determine baseline lethality. Results for neuropeptide analogues were calculated as % lethality in the remaining population after adjustment for the baseline.

[4] = target: T1, Drosophila melanogaster capa GPCR, capaR (Drosophila melanogaster, UniProt Q8ITC7 1-477); test: cell-based or functional assay
T1 sequence (looked up): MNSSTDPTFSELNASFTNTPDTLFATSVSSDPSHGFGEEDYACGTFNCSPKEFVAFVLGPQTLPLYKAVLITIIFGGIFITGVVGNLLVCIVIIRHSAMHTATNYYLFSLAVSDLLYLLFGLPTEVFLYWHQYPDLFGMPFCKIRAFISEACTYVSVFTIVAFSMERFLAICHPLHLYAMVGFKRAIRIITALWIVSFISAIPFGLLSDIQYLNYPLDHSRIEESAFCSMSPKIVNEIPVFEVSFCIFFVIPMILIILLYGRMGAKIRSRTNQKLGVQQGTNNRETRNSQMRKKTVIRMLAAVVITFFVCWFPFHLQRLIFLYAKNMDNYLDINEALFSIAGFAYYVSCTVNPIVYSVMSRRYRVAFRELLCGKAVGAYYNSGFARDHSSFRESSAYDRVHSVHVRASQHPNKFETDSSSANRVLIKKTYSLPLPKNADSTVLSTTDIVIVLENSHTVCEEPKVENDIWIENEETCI

Molecule: H-(Me)L-YAFARV-NH2 (H-[NMeL]YAFARV-NH2; SMILES CN[C@@H](CC(C)C)C(=O)N[C@@H](Cc1ccc(O)cc1)C(=O)N[C@@H](C)C(=O)N[C@@H](Cc1ccccc1)C(=O)N[C@@H](C)C(=O)N[C@@H](CCCNC(=N)N)C(=O)N[C@H](C(N)=O)C(C)C) [AH383]
Feeding D. suzukii, % lethality in population after adjustment for baseline [1]: 56%
LD50 (D. suzukii larvae; 72 hours treatment): 10^−6 M
% Lethality ± SEM (D. suzukii larvae): 80 ± 3%
Feeding Aphid, % lethality in population after adjustment for baseline (M. persicae [2]; 10^−5 M): 10%
mean lethality (M. persicae [3]; M. persicae feeding, 10^−5 M, 120 hours): ~60%
lethality observed in one sample of 30 insects (M. persicae [3]; M. persicae feeding, 10^−5 M, 120 hours, single sample): 90%
Spray Aphid, % lethality in population after adjustment for baseline (Myzus persicae aphids; 10^−4 M): 42%
Spray Aphid, % lethality in population after adjustment for baseline (Myzus persicae aphids; 10^−5 M): 13%

Molecule: H-LYAFARV-NH2 [AH188]
Feeding D. suzukii, % lethality in population after adjustment for baseline [1]: 71%
D. suzukii (Mean% Lethality ± SD) ([1]; Peptide screening, Table 5, blank control 20.33): 70.50%
D. suzukii (Sig Diff Grp) ([1]; Peptide screening, Table 5, difference in survival): ABC
LD50 (D. suzukii larvae; 48 hours treatment): 10^−6 M
% Lethality ± SEM (D. suzukii larvae): 71 ± 6%
Feeding Aphid, % lethality in population after adjustment for baseline (M. persicae [2]; 10^−4 M): 23%
Feeding Aphid, % lethality in population after adjustment for baseline (M. persicae [2]; 10^−5 M): 23%
Feeding Aphid, % lethality in population after adjustment for baseline (M. persicae [2]; 10^−5 M, @72 h): 1 (33%@72 h)
Feeding Aphid, % lethality in population after adjustment for baseline (M. persicae [2]; 10^−6 M): 22%
Feeding Aphid, % lethality in population after adjustment for baseline (M. persicae [2]; 10^−7 M): 17%
M. persicae (% Lethality) (M. persicae [3]; Peptide screening, Table 5): 22%
Spray Aphid, % lethality in population after adjustment for baseline (Myzus persicae aphids; 10^−4 M): 2%

CapaR Ca^2+ Agonist response at 10^-7 M [4]: 36 % of native Capa1 activity
B1: AH382 (H-LY-(Me)A-FARV-NH2) (peptide)
peptide: H-LY[NMeA]FARV-NH2
SMILES: CC(C)C[C@H](N)C(=O)N[C@@H](Cc1ccc(O)cc1)C(=O)N(C)[C@@H](C)C(=O)N[C@@H](Cc1ccccc1)C(=O)N[C@@H](C)C(=O)N[C@@H](CCCNC(=N)N)C(=O)N[C@H](C(N)=O)C(C)C

CapaR Ca^2+ Agonist response at 10^-7 M [4]: 26 % of native Capa1 activity
B2: AH383 (H-(Me)L-YAFARV-NH2) (peptide)
peptide: H-[NMeL]YAFARV-NH2
SMILES: CN[C@@H](CC(C)C)C(=O)N[C@@H](Cc1ccc(O)cc1)C(=O)N[C@@H](C)C(=O)N[C@@H](Cc1ccccc1)C(=O)N[C@@H](C)C(=O)N[C@@H](CCCNC(=N)N)C(=O)N[C@H](C(N)=O)C(C)C

CapaR Ca^2+ Agonist response at 10^-7 M [4]: 14 % of native Capa1 activity
B3: AH380 (H-LYAFAR-(Me)V-NH2) (peptide)
peptide: H-LYAFAR[NMeV]-NH2
SMILES: CC(C)C[C@H](N)C(=O)N[C@@H](Cc1ccc(O)cc1)C(=O)N[C@@H](C)C(=O)N[C@@H](Cc1ccccc1)C(=O)N[C@@H](C)C(=O)N[C@@H](CCCNC(=N)N)C(=O)N(C)[C@H](C(N)=O)C(C)C

CapaR Ca^2+ Agonist response at 10^-7 M [4]: 64 % of native Capa1 activity
Molecule: H-LYAFARV-NH2 [AH188 (H-LYAFARV-NH2)]

CapaR Ca^2+ Agonist response at 10^-7 M [4]: 17 % of native Capa1 activity
B4: AH387 (H-LY-Aib-FARV-NH2) (peptide)
peptide: H-LY[Aib]FARV-NH2
SMILES: CC(C)C[C@H](N)C(=O)N[C@@H](Cc1ccc(O)cc1)C(=O)NC(C)(C)C(=O)N[C@@H](Cc1ccccc1)C(=O)N[C@@H](C)C(=O)N[C@@H](CCCNC(=N)N)C(=O)N[C@H](C(N)=O)C(C)C
